Values of other authors, collected in patent US20260083720A1 (Vyluma Inc., priority 2022, published 2026).

Columns and labels:
myopia progression [1] = details: Chan, 0.01% concentration, period of 6 months
myopia progression [2] = details: Yam et al., atropine at 0.01%; dose-dependent between 0.05% and 0.01%
myopia progression [3] = details: Hieda et al., atropine group
myopia progression [4] = details: Wei et al., atropine-placebo group

For `CN1[C@@H]2CC[C@H]1C[C@@H](OC(=O)C(CO)c1ccccc1)C2` (some centres unmarked) [atropine], the “changes in mean SER and AL” value (myopia progression [1]) is given as “can be reduced”, the “effect of atropine on myopia progression” value (myopia progression [2]) is given as “only relatively small effects” and the “mean AL changes at 24 mo” value (myopia progression [3]; placebo 0.77) is given as 0.63 mm. The “Mean SER changes at 24 mo” value (myopia progression [3]; placebo −1.48) was −1.26 D and the “mean myopia progression after 24 months” value (myopia progression [4]) was −1.26 D.
